Paper PMC10973839, “CHF6297: a novel potent and selective p38 MAPK inhibitor with robust anti-inflammatory activity and suitable for inhaled pulmonary administration as dry powder” (Frontiers in Pharmacology, 2024)

Biological target: T1, human p38γ (Homo sapiens, UniProt P53778)
T1 construct: GST; purchased Invitrogen
T1 sequence (P53778 1-367): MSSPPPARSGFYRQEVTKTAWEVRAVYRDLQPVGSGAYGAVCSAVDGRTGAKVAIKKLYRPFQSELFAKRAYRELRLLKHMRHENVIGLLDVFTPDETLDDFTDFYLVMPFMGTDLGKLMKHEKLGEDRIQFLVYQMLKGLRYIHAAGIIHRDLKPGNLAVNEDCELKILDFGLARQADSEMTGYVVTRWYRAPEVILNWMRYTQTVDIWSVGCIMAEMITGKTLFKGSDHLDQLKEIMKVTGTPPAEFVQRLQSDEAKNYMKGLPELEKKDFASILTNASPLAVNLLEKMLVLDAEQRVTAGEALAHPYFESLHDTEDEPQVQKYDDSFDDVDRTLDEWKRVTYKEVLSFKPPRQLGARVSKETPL
Assay: KINOMEscan competition binding assay (DiscoverX), p38γ
Details: read-out: Kd (mean ± s.d.)
Excerpt: The KINOMEscan® platform (DiscoverX) was used, which uses a novel and proprietary active site-directed competition binding assay to quantitatively measure the interactions between human p38 isoforms and the target compound.

C[C@H]1CCCCN1c1nnc2ccc(O[C@@H]3CC[C@H](NC(=O)Nc4cc(C(C)(C)C)nn4-c4cnn(CCN(C)C)c4)c4ccccc43)cn12 [CHF6297]
Kd: > 1 µM
